Measurements as given in ChEMBL document CHEMBL1649420, “Identifying chelators for metalloprotein inhibitors using a fragment-based approach” (J Med Chem, 2011).

Key:
[1] = molecular target: T1, Lethal factor (Bacillus anthracis) (UniProt P15917); settings: at 1 mM
T1 sequence (whole entry): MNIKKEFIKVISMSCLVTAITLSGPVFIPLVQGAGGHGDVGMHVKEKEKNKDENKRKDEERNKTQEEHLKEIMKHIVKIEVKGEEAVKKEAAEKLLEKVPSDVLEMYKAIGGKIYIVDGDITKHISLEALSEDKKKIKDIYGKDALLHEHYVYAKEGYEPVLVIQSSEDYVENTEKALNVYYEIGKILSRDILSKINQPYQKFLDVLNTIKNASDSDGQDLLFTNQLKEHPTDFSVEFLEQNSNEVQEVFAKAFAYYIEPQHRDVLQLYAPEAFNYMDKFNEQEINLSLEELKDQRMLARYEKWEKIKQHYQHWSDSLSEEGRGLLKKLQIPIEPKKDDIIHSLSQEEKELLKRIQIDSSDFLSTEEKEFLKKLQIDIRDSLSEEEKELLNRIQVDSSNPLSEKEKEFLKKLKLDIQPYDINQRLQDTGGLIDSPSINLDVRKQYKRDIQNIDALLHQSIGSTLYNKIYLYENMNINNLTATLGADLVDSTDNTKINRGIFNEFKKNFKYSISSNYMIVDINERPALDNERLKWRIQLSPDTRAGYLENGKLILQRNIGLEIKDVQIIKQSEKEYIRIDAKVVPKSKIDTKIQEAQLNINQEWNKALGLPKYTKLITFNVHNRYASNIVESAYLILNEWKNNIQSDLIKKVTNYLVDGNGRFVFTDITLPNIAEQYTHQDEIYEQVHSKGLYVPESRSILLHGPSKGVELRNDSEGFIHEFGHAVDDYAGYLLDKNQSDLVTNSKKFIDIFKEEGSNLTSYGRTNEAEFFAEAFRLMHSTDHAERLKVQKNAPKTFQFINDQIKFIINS

[2] = molecular target: Matrix metalloproteinase-9 (Homo sapiens) (UniProt P14780); settings: at 1 mM;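 further: recombinant human MMP9, activity read after 30 min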
Matrix metalloproteinase-9 (Homo sapiens), sequence (P14780 whole entry): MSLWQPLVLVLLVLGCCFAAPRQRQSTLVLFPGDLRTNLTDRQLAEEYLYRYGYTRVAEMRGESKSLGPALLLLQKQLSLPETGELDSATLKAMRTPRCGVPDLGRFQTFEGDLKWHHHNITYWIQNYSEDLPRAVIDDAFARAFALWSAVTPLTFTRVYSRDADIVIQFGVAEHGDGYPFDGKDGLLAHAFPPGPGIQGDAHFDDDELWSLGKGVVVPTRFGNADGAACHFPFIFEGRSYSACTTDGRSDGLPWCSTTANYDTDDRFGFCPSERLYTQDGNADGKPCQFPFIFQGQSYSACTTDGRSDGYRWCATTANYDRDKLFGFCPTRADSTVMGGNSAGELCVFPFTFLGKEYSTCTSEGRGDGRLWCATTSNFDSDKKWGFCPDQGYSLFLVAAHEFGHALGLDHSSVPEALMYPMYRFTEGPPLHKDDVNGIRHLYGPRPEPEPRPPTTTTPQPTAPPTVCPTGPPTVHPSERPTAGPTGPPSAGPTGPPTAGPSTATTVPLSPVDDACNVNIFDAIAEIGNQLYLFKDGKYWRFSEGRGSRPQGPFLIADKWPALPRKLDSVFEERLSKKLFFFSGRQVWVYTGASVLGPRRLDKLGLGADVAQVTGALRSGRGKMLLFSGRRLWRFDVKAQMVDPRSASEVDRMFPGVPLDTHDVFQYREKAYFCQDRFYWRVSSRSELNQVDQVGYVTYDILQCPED

[3] = molecular target: T2, Tyrosinase (Agaricus bisporus) (UniProt O42713); settings: at 1 mM;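 further: inhibition measured at 10 min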
T2 sequence (whole entry): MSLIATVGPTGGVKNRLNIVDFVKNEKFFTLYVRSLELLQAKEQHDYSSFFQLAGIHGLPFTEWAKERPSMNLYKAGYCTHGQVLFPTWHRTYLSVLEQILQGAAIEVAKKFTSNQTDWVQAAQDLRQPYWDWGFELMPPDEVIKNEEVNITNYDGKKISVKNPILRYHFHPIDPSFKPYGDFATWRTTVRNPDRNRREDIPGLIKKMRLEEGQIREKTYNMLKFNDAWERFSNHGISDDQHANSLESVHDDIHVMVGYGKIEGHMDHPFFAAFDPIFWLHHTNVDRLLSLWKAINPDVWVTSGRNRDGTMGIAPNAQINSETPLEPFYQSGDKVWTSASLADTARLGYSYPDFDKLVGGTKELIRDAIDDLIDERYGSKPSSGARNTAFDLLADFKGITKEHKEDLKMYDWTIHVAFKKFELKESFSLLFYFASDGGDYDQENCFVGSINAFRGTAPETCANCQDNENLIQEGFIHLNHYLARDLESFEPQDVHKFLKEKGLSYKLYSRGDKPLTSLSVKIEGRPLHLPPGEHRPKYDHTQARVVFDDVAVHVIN

[4] = molecular target: T3, Interstitial collagenase (Homo sapiens) (UniProt P03956); settings: at 1 mM;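 further: recombinant human enzyme, with inhibition measured after 30 min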
T3 sequence (whole entry): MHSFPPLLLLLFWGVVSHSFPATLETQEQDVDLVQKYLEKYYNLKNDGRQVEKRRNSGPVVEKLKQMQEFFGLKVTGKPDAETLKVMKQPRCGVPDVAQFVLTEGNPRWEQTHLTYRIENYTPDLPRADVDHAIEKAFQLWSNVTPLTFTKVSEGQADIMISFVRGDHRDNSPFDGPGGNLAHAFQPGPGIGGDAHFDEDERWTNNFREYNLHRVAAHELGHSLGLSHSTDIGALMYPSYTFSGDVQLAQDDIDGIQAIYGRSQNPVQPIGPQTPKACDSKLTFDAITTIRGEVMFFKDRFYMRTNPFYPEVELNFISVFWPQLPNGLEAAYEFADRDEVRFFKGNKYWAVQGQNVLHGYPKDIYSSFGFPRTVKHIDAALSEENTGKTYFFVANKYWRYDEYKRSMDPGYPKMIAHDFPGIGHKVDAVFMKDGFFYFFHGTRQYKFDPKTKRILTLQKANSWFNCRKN

[5] = molecular target: 72 kDa type IV collagenase (Homo sapiens, UniProt P08253); settings: at 1 mM;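 further: recombinant human enzyme, inhibition read after a 30 min incubation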
72 kDa type IV collagenase, sequence (P08253 110-660 limits assumed): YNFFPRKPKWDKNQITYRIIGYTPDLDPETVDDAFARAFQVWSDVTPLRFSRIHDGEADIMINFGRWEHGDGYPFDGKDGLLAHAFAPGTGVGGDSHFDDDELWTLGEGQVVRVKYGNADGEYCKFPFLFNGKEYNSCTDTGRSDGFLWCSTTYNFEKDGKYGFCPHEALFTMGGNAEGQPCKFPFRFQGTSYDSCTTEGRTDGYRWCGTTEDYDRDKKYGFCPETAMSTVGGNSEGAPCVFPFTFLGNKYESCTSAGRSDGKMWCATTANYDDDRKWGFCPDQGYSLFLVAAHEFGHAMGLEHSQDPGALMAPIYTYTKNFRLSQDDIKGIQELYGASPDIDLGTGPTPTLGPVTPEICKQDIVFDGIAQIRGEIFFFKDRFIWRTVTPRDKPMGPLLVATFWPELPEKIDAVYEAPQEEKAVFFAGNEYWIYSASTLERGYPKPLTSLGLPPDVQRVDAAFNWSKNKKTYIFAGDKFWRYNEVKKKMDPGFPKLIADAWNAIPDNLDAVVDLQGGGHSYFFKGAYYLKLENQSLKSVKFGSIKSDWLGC

[6] = molecular target: Neutrophil collagenase (Homo sapiens) (UniProt P22894); settings: at 1 mM;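 further: recombinant human MMP8 enzyme, percent inhibition read after 30 min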
Neutrophil collagenase (Homo sapiens), sequence (P22894 101-467 limits assumed): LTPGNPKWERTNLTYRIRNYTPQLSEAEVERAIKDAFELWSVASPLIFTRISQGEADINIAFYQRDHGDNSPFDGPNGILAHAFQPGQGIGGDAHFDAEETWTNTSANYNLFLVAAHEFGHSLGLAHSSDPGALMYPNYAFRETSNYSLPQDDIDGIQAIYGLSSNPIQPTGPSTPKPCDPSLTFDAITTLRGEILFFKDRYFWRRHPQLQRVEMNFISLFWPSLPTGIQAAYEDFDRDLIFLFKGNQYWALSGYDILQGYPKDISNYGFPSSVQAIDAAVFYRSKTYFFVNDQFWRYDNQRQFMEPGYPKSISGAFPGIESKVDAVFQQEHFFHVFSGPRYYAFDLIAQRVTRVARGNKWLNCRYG

[7] = molecular target: Stromelysin-1 (Homo sapiens) (UniProt P08254); settings: at 1 mM;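 further: recombinant enzyme, inhibition read after a 30 min incubation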
Stromelysin-1 (Homo sapiens), sequence (P08254 100-477 limits assumed): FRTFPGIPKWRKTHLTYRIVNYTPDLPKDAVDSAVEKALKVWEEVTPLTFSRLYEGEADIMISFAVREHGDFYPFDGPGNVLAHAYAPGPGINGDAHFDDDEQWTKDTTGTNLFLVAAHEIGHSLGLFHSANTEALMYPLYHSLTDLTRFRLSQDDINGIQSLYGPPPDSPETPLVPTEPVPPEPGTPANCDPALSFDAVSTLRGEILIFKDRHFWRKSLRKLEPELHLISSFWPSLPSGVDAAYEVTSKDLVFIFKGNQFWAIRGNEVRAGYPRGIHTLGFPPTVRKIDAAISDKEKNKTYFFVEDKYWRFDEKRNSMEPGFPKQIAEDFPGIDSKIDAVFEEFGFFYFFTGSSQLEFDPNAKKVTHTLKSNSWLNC

[8] = molecular target: T4, Polyunsaturated fatty acid 5-lipoxygenase (Homo sapiens) (UniProt P09917); experiment: Inhibition of human recombinant 5-lipoxygenase at 1 mM after 10 mins by fluorescence assay
T4 sequence (whole entry): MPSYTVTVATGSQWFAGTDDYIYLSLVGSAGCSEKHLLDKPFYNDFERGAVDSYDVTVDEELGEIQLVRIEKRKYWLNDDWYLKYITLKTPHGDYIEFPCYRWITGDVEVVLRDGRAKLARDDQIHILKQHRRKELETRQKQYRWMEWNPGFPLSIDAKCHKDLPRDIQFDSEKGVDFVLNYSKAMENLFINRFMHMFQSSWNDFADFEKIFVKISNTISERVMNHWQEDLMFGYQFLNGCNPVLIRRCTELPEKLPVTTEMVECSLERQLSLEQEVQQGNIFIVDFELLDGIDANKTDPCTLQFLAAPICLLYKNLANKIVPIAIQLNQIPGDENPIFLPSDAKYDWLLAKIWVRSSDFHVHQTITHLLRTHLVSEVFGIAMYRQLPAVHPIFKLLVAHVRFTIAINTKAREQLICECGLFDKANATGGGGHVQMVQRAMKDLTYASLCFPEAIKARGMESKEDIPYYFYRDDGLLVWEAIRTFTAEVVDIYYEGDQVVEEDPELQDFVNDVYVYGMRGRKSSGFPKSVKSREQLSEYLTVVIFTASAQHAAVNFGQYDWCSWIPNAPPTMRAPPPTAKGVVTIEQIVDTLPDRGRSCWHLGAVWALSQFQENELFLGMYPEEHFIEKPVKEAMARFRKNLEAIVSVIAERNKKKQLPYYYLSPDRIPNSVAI

SMILES	inhibition [1] [%]	inhibition [2] [%]	inhibition [3] [%]	inhibition [4] [%]	inhibition [5] [%]	inhibition [6] [%]	inhibition [7] [%]	inhibition [8] [%]
Oc1ccccc1-c1nc2ccccc2s1	1	3	34	6	7	40	4	
O=c1ccc2ccccc2[nH]1	36	5	5	20	5	33	3	22
[O-][n+]1ccccc1S	23	77	81	78	91	90	100	70
CCc1c(O)c(=S)ccn1CC	55	100	100	81	100	94	99	97
Cc1ccc(C(=O)O)c(C(=O)O)n1	43	-10	96	8		11	28	22
Cc1cc(C)nc(S)n1	15	56	99	56	55	49	70	80
Nc1cccc2cccnc12	30	57		63	51	61	56	
O=c1cc[nH]c(=S)[nH]1	33	44	36	52	47	37	47	
Oc1cc(O)nc(S)n1	18	15	99	30	17	25	38	72
COc1ccccc1S	19	17		11	3	26	-8	
O=C1C=C(O)C(=O)c2ccccc21	100	85	69	86	84	86	84	100
CC(C)c1cccc(C(=O)O)c1O	-3	9	91	13	-2	3	5	-3
O=C(O)c1ccc(O)c(O)c1	21	-1	50	14	-8	13	0	86
CS(=O)(=O)Nc1cccc2cccnc12		59		57	84	75	64	13
CCn1ccc(=S)c(O)c1C	60	100	100	98	100	93	99	96
Oc1ccc(Cl)c2cccnc12	44	1	0	39	60	73	45	
Oc1ccccc1-c1nc2ccccc2o1	0		3	11	1	28	4	
Oc1nccc(S)n1	22	90	44	90		83	95	46
Cc1cc(=O)[nH]c(=S)[nH]1	29	27	31	40	26	31	37	70
Cn1cccc(O)c1=S	56	96	93	89	100	96	90	93
Oc1ccc2ccccc2c1O	85	86		71	71	100	89	69
Cc1c(O)c(=S)ccn1C	51	100	100	78	100	95	99	95
